Source: patent US7989482B2, “Indoline anti-cancer agents” (Joyant Pharmaceuticals, Inc., priority 2008, dated 2011)
Like-named read-outs stand apart in the source and are kept apart here.

Legend:
U937 cells = assay: Cell viability assay (CELL-TITER-GLO) in U937 cells; format: cell-based; conditions: Homo sapiens, U937 cells, 48 hour treatment, cell viability, read-out: IC50 (μM) U937
Description: (§1) Cell viability assays were run using standard protocols known to those of skill in art. Cells were plated in 96 well plates at the density of 3,000-10,000 cells per well. Twenty four hours later, cells were treated with increasing concentration of test compounds (1 nM to 1 μM). After another 48 hour, cell survival was measured using CELL-TITER-GLO® reagent (Promega) following the protocol provided by the manufacture. The IC50 value was determined as the concentration of test compound that kills 50% of the cell population.
(§2) Cell viability data generated according to the protocol described in Example 97 was generated for representative compounds in A2058 and U937 cells.

A2058 cells = assay: Cell viability assay (CELL-TITER-GLO) in A2058 cells; format: cell-based; conditions: Homo sapiens, A2058 cells, 48 hour treatment, cell viability, read-out: IC50 (μM) A2058
Description: as §1, §2

Row | IC50 (U937 cells; U-937) [µM] | SMILES | IC50 (U937 cells; U-937, 48 h) [µM] | IC50 (A2058 cells; A2058, 48 h) [µM] | IC50 (A2058 cells) [µM]
1 |  | CC(C)[C@H](O)C(=O)N[C@H]1Cc2ccc3c(c2)[C@]24C5=C(N=C(O5)[C@H](C(C)C)NC1=O)c1ncc(o1)-c1c[nH]c5cccc(c15)-c1cccc2c1NC4O3 (stereo partly drawn) [Cpd J, reference compound] | 0.026 | 0.039 | 
2 |  | COC(=O)c1nc2oc1[C@@]13c4ccccc4NC1Oc1ccc(cc13)CC(N)C(=O)N[C@H]2C(C)C (stereo partly drawn) [Example 3] | > 1 | > 1 | 
3 | > 1 | COC(=O)c1nc2oc1[C@@]13c4ccccc4NC1Oc1ccc(cc13)CC(NC(=O)OCc1ccccc1)C(=O)N[C@H]2C(C)C (stereo partly drawn) [Example 4] |  |  | > 1
4 |  | COC(=O)c1nc2oc1[C@@]13c4ccccc4NC1Oc1ccc(cc13)C[C@H](NC(=O)[C@@H](O)C(C)C)C(=O)N[C@H]2C(C)C (stereo partly drawn) [Example 6] | > 1 | > 1 | 
5 |  | COC(=O)c1nc2oc1[C@@]13c4ccccc4NC1Oc1ccc(cc13)C[C@H](NC(=O)[C@@H](O)c1ccccc1)C(=O)N[C@H]2C(C)C (stereo partly drawn) [Example 7] | > 1 | > 1 | 
6 |  | [H][C@]1(C(=O)N[C@H]2Cc3ccc4c(c3)C3(C5=C(C(=O)OC)N=C(O5)[C@H](C(C)C)NC2=O)c2ccccc2N[C@H]3O4)CCCO1 (stereo partly drawn) [Example 8] | > 1 | > 1 | 
7 |  | COC(=O)c1nc2oc1C13c4ccccc4N[C@H]1Oc1ccc(cc13)C[C@H](NC(=O)[C@@H](O)CC(C)C)C(=O)N[C@H]2C(C)C (stereo partly drawn) [Example 9] | > 1 | > 1 | 
8 |  | COC(=O)c1nc2oc1C13c4ccccc4N[C@H]1Oc1ccc(cc13)C[C@H](NC(=O)c1cc(OC)c(OC)c(OC)c1)C(=O)N[C@H]2C(C)C (stereo partly drawn) [Example 10] | > 1 | > 1 | 
9 |  | CC(C)[C@H](O)C(=O)N[C@H]1Cc2ccc3c(c2)[C@]2(C4=C(C(=O)NCCc5c[nH]c6ccccc56)N=C(O4)[C@H](C(C)C)NC1=O)c1ccccc1NC2O3 (stereo partly drawn) [Example 11] | > 1 | > 1 | 
10 | > 1 | CC(C)[C@H](O)C(=O)N[C@H]1Cc2ccc3c(c2)[C@]2(C4=C(C(=O)O)N=C(O4)[C@H](C(C)C)NC1=O)c1ccccc1NC2O3 (stereo partly drawn) [Example 12] |  |  | > 1
11 |  | COC(=O)[C@@H]1CCCN1C(=O)c1nc2oc1C13c4ccccc4N[C@H]1Oc1ccc(cc13)C[C@H](NC(=O)[C@@H](O)C(C)C)C(=O)N[C@H]2C(C)C (stereo partly drawn) [Example 13] | > 1 | > 1 | 
12 |  | CC(C)[C@H](O)C(=O)N[C@H]1Cc2ccc3c(c2)C2(C4=C(C(=O)N5CCCC5)N=C(O4)[C@H](C(C)C)NC1=O)c1ccccc1N[C@H]2O3 (stereo partly drawn) [Example 14] | > 1 | > 1 | 
13 | > 1 | CC(C)[C@H](O)C(=O)N[C@H]1Cc2ccc3c(c2)C2(C4=C(C(=O)NCc5ccccc5)N=C(O4)[C@H](C(C)C)NC1=O)c1ccccc1N[C@H]2O3 (stereo partly drawn) [Example 15] |  |  | > 1
14 |  | CC(C)[C@H](O)C(=O)N[C@H]1Cc2ccc3c(c2)C2(C4=C(C(=O)NCC5CCCCC5)N=C(O4)[C@H](C(C)C)NC1=O)c1ccccc1N[C@H]2O3 (stereo partly drawn) [Example 16] | > 1 | > 1 | 
15 |  | CC(C)[C@H](O)C(=O)N[C@H]1Cc2ccc3c(c2)C2(C4=C(C(=O)N[C@@H]5CCCc6ccccc65)N=C(O4)[C@H](C(C)C)NC1=O)c1ccccc1N[C@H]2O3 (stereo partly drawn) [Example 17] | > 1 | > 1 | 
16 |  | CC(C)[C@H](O)C(=O)N[C@H]1Cc2ccc3c(c2)C2(C4=C(C(=O)NCC(c5ccccc5)c5ccccc5)N=C(O4)[C@H](C(C)C)NC1=O)c1ccccc1N[C@H]2O3 (stereo partly drawn) [Example 18] | > 1 | > 1 | 
17 | > 1 | CC(C)[C@H](O)C(=O)N[C@H]1Cc2ccc3c(c2)C2(C4=C(C(=O)NC(c5ccccc5)c5ccccc5)N=C(O4)[C@H](C(C)C)NC1=O)c1ccccc1N[C@H]2O3 (stereo partly drawn) [Example 19] |  |  | > 1
18 |  | CC(C)[C@H](O)C(=O)N[C@H]1Cc2ccc3c(c2)C2(C4=C(C(=O)NCc5ccc(F)cc5)N=C(O4)[C@H](C(C)C)NC1=O)c1ccccc1N[C@H]2O3 (stereo partly drawn) [Example 20] | > 1 | > 1 | 
19 |  | CC(C)[C@H](O)C(=O)N[C@H]1Cc2ccc3c(c2)C2(C4=C(C(=O)N5CCCC5c5ccccc5)N=C(O4)[C@H](C(C)C)NC1=O)c1ccccc1N[C@H]2O3 (stereo partly drawn) [Example 21] | > 1 | > 1 | 
20 |  | CC(C)[C@H](O)C(=O)N[C@H]1Cc2ccc3c(c2)C2(C4=C(C(=O)NC5CCCCC5)N=C(O4)[C@H](C(C)C)NC1=O)c1ccccc1N[C@H]2O3 (stereo partly drawn) [Example 22] | > 1 | > 1 | 
21 |  | CNC(=O)c1nc2oc1C13c4ccccc4N[C@H]1Oc1ccc(cc13)C[C@H](NC(=O)[C@@H](O)C(C)C)C(=O)N[C@H]2C(C)C (stereo partly drawn) [Example 23] | > 1 | > 1 | 

Row | IC50 (U937 cells; U-937) [µM] | SMILES | IC50 (U937 cells; U-937, 48 h) [µM] | IC50 (A2058 cells; A2058, 48 h) [µM] | IC50 (A2058 cells) [µM]
22 |  | CC(C)[C@H](O)C(=O)N[C@H]1Cc2ccc3c(c2)C2(C4=C(C(=O)NC(C)(C)C)N=C(O4)[C@H](C(C)C)NC1=O)c1ccccc1N[C@H]2O3 (stereo partly drawn) [Example 24] | > 1 | > 1 | 
23 |  | CCN(CC)C(=O)c1nc2oc1C13c4ccccc4N[C@H]1Oc1ccc(cc13)C[C@H](NC(=O)[C@@H](O)C(C)C)C(=O)N[C@H]2C(C)C (stereo partly drawn) [Example 25] | > 1 | > 1 | 
24 |  | CC(C)[C@H](O)C(=O)N[C@H]1Cc2ccc3c(c2)C2(C4=C(C(=O)N5CCc6ccccc65)N=C(O4)[C@H](C(C)C)NC1=O)c1ccccc1N[C@H]2O3 (stereo partly drawn) [Example 26] | > 1 | > 1 | 
25 |  | CC(C)[C@H](O)C(=O)N[C@H]1Cc2ccc3c(c2)C2(C4=C(C(=O)N5CCN=C5c5ccccc5)N=C(O4)[C@H](C(C)C)NC1=O)c1ccccc1N[C@H]2O3 (stereo partly drawn) [Example 27] | > 1 | > 1 | 
26 |  | CC(C)[C@H](O)C(=O)N[C@H]1Cc2ccc3c(c2)C2(C4=C(C(=O)NC5CCc6ccccc65)N=C(O4)[C@H](C(C)C)NC1=O)c1ccccc1N[C@H]2O3 (stereo partly drawn) [Example 28] | > 1 | > 1 | 
27 |  | CC(C)[C@H](O)C(=O)N[C@H]1Cc2ccc3c(c2)C2(C4=C(C(=O)NCCO)N=C(O4)[C@H](C(C)C)NC1=O)c1ccccc1N[C@H]2O3 (stereo partly drawn) [Example 29] | > 1 | > 1 | 
28 |  | COC(=O)[C@H](CO)NC(=O)c1nc2oc1C13c4ccccc4N[C@H]1Oc1ccc(cc13)C[C@H](NC(=O)[C@@H](O)C(C)C)C(=O)N[C@H]2C(C)C (stereo partly drawn) [Example 30] | > 1 | > 1 | 
29 |  | CC(C)[C@H](O)C(=O)N[C@H]1Cc2ccc3c(c2)[C@]2(C4=C(C(N)=O)N=C(O4)[C@H](C(C)C)NC1=O)c1ccccc1NC2O3 (stereo partly drawn) [Example 31] | > 1 | > 1 | 
30 |  | CC(C)[C@H](O)C(=O)N[C@H]1Cc2ccc3c(c2)C2(C4=C(C(=O)NCC(=O)c5c[nH]c6c(O)cccc56)N=C(O4)[C@H](C(C)C)NC1=O)c1ccccc1N[C@H]2O3 (stereo partly drawn) [Example 32] | > 1 | > 1 | 
31 |  | CC(C)[C@H](O)C(=O)N[C@H]1Cc2ccc3c(c2)C2(C4=C(C(=O)NCC(=O)c5c[nH]c6c(O)cccc56)N=C(O4)[C@H](C(C)C)NC1=O)c1cccc(Br)c1N[C@H]2O3 (stereo partly drawn) [Example 33] | > 1 | > 1 | 
32 |  | CC(C)[C@H](O)C(=O)N[C@H]1Cc2ccc3c(c2)C2(C4=C(C(=O)NCC(=O)c5c[nH]c6ccccc56)N=C(O4)[C@H](C(C)C)NC1=O)c1ccccc1N[C@H]2O3 (stereo partly drawn) [Example 34] | > 1 | > 1 | 
33 |  | COC(=O)c1nc2oc1C13c4ccccc4N[C@H]1Oc1ccc(cc13)C[C@H](NC(=O)[C@@H]1CCCN1)C(=O)NC2C(C)C (stereo partly drawn) [Example 35] | > 1 | > 1 | 
34 | > 1 | COC(=O)c1nc2oc1C13c4ccccc4N[C@H]1Oc1ccc(cc13)C[C@H](NC(=O)[C@@H]1C[C@@H](O)CN1)C(=O)NC2C(C)C (stereo partly drawn) [Example 36] |  |  | > 1
35 |  | COC(=O)c1nc2oc1C13c4cc(ccc4O[C@@H]1N(S(C)(=O)=O)c1ccccc13)C[C@H](NC(=O)[C@@H](O)C(C)C)C(=O)N[C@H]2C(C)C (stereo partly drawn) [Example 37] | > 1 | > 1 | 
36 |  | COC(=O)c1nc2oc1C13c4cc(ccc4O[C@@H]1Nc1c(-c4ccccc4)cccc13)C[C@H](NC(=O)[C@@H](O)C(C)C)C(=O)N[C@H]2C(C)C (stereo partly drawn) [Example 38] | > 1 | > 1 | 
37 |  | COC(=O)c1nc2oc1C13c4cc(ccc4O[C@@H]1Nc1c(-c4cccc5[nH]ccc45)cccc13)C[C@H](NC(=O)[C@@H](O)C(C)C)C(=O)N[C@H]2C(C)C (stereo partly drawn) [Example 39] | > 1 | > 1 | 
38 |  | COC(=O)c1nc2oc1C13c4cc(ccc4O[C@@H]1Nc1c(-c4c(C)cccc4C)cccc13)C[C@H](NC(=O)[C@@H](O)C(C)C)C(=O)N[C@H]2C(C)C (stereo partly drawn) [Example 40] | > 1 | > 1 | 
39 |  | COC(=O)c1nc2oc1C13c4cc(ccc4O[C@@H]1Nc1c(-c4ccncc4)cccc13)C[C@H](NC(=O)[C@@H](O)C(C)C)C(=O)N[C@H]2C(C)C (stereo partly drawn) [Example 41] | > 1 | > 1 | 
40 |  | COC(=O)c1nc2oc1C13c4cc(ccc4O[C@@H]1Nc1c(-c4c(C)c(C)cc(C)c4C)cccc13)C[C@H](NC(=O)[C@@H](O)C(C)C)C(=O)N[C@H]2C(C)C (stereo partly drawn) [Example 42] | > 1 | > 1 | 
41 |  | CC(C)[C@H](O)C(=O)N[C@H]1Cc2ccc3c(c2)C2(C4=C(C5=NCCO5)N=C(O4)[C@H](C(C)C)NC1=O)c1ccccc1N[C@H]2O3 (stereo partly drawn) [Example 43] | 0.697 | 0.533 | 
42 |  | COC(=O)[C@@H]1COC(c2nc3oc2C24c5ccccc5N[C@H]2Oc2ccc(cc24)C[C@H](NC(=O)[C@@H](O)C(C)C)C(=O)N[C@H]3C(C)C)=N1 (stereo partly drawn) [Example 44] | > 1 | > 1 | 
